Data from US12472166B2, “Inhibition of mycobacterial type VII secretion” (priority 2019, dated 2025).
Where two headings read alike, the source gives them in different places.

Tests used:
zebrafish embryos = conditions: in vivo
M. tuberculosis = experiment: microbe, parasite or virus in culture; assay type: cell-based; conditions: for IC50: read-out: IC50 (μM) M.tb/REMA; for IC90: read-out: IC90 (μM) M.tb/REMA; for increase of activity as compared to compound I-12: tested on M. tuberculosis
in vitro = conditions: human, microsomes, pH 7.4
[1] = human, microsomes, pH 7.4; for Half-life: 15 μM; for Compound remaining (%): 0.5 h
M. tuberculosis H37Rv WT = experiment: THP-1 macrophage infection study, CFU counting; assay type: cell-based, Mycobacterium tuberculosis
[2] = Mycobacterium tuberculosis, 168 h
[3] = Mycobacterium tuberculosis, 168 h, replicating M. tuberculosis, seven days, 37° C.
[4] = Mycobacterium tuberculosis, concentration that reduced bacterial viability to lower than 10%
[5] = THP-1 macrophages, MOI 1, day 5

COc1ccc(-c2nsc(SCC(=O)NCC3CCCC3)n2)cc1 [Compound I-38, reference compound]
toxicity (survival of zebra fish embryos scored by heartbeat) (zebrafish embryos): somewhat less toxic than I-40 and I-41
IC50 (M. tuberculosis; [2]): 0.447 µM
IC90 (M. tuberculosis; Mycobacterium tuberculosis): 1.25 µM

COc1ccc(-c2nsc(SCC(=O)N3CCOCC3)n2)cc1 [Compound I-15]
IC50 (M. tuberculosis; [3]): 0.121 µM
IC90 (M. tuberculosis; [4]): 2.5 µM

COc1cccc(-c2nsc(SCC(=O)NC3CCCC3)n2)c1 [Compound I-8]
IC50 (M. tuberculosis; [3]): 0.076 µM
IC90 (M. tuberculosis; [4]): 1.25 µM

CCCNC(=O)COc1nc(-c2ccccc2)ns1 [Compound I-42]
IC50 (M. tuberculosis; [3]): > 10 µM
IC90 (M. tuberculosis; [4]): > 10 µM

Cc1cccc(-c2nsc(SCC(=O)NCC3CCCO3)n2)c1 (centres unmarked) [Compound I-39, reference compound]
toxicity (survival of zebra fish embryos scored by heartbeat) (zebrafish embryos): least toxic of the comparative compounds
IC50 (M. tuberculosis; [2]): 0.248 µM
IC90 (M. tuberculosis; Mycobacterium tuberculosis): 0.63 µM

C#CCNC(=O)CSc1nc(-c2ccc(OC)cc2)ns1 [Compound I-7]
IC50 (M. tuberculosis; [3]): 0.306 µM
IC90 (M. tuberculosis; [4]): 0.63 µM

O=C(CSc1nc(-c2ccccc2)ns1)NC1CCCC1 [Compound I-5]
CLint scaled at 15 μM (in vitro): 8.78 mL/min/kg
IC50 (M. tuberculosis): 0.256 µM
IC90 (M. tuberculosis): 0.63 µM
increase of activity as compared to compound I-12 (M. tuberculosis): two-fold
Half-life [1]: 70.8 min
Compound remaining (%) [1]: 75%
concentration required to reduce the bacterial load below the initial amount on day 0 (M. tuberculosis H37Rv WT; [5]): 10 µM
concentration with significant decrease of bacterial load as compared to the DMSO control (M. tuberculosis H37Rv WT; [5]): 3 µM

COc1ccc(-c2nsc(SCC(=O)NC3CC3)n2)cc1 [Compound I-13]
IC50 (M. tuberculosis; [3]): 0.478 µM
IC90 (M. tuberculosis; [4]): 1.25 µM

O=C(CSc1nc(-c2cccnc2)ns1)NC1CCCC1 [Compound I-19]
IC50 (M. tuberculosis; [3]): 0.502 µM
IC90 (M. tuberculosis; [4]): 2.5 µM

CCOC(=O)CNC(=O)CSc1nc(-c2cccc(C)c2)ns1 [Compound I-40, reference compound]
toxicity (survival of zebra fish embryos scored by heartbeat) (zebrafish embryos): toxic
IC50 (M. tuberculosis; [2]): 0.169 µM
IC90 (M. tuberculosis; Mycobacterium tuberculosis): 0.31 µM

CCCNC(=O)CSc1nc(-c2ccccc2)ns1 [Compound I-1]
CLint scaled at 15 μM (in vitro): 13.6 mL/min/kg
IC50 (M. tuberculosis; [3]): 0.083 µM
IC90 (M. tuberculosis; [4]): 0.16 µM
increase of activity as compared to compound I-12 (M. tuberculosis): eight-fold
Half-life [1]: 45.6 min
Compound remaining (%) [1]: 64%
activity compared with Ethambutol (EMB) (M. tuberculosis H37Rv WT; 10 μM): as active as EMB
activity compared with Streptomycin (STR) (M. tuberculosis H37Rv WT; 10 μM): higher activity than STR
reduction of bacteria as compared to the DMSO control (M. tuberculosis H37Rv WT; 10 μM): approximately 100 fold
concentration with significant decrease of bacterial load as compared to the DMSO control (M. tuberculosis H37Rv WT; [5]): 1 µM

O=C(CSc1nc(-c2ccc(Cl)cc2)ns1)NC1CCCC1 [Compound I-17]
IC50 (M. tuberculosis; [3]): 0.21 µM
IC90 (M. tuberculosis; [4]): 2.5 µM

COc1ccc(-c2nsc(SCC(=O)NCc3ccccc3)n2)cc1 [Compound I-30]
IC50 (M. tuberculosis; [3]): 2.42 µM
IC90 (M. tuberculosis; [4]): 10 µM

O=C(CSc1nc(-c2ccccc2)ns1)NCCC(F)(F)F [Compound I-35]
CLint scaled at 15 μM (in vitro): 12.8 mL/min/kg
IC50 (M. tuberculosis; [3]): 0.224 µM
IC90 (M. tuberculosis; [4]): 0.63 µM
Half-life [1]: 48.6 min
Compound remaining (%) [1]: 65%

O=C(CSc1nc(-c2ccccc2)no1)NC1CCCC1 [Compound I-31]
growth of M. tuberculosis (M. tuberculosis; 10 μM): inhibited growth
IC50 (M. tuberculosis): 2.71 µM
IC90 (M. tuberculosis): 10 µM

COc1ccc(-c2nsc(SCC(=O)NCCC(F)(F)F)n2)cc1 [Compound I-34]
IC50 (M. tuberculosis; [3]): 0.038 µM
IC90 (M. tuberculosis; [4]): 0.31 µM

CCNC(=O)CSc1nc(-c2ccccc2)ns1 [Compound I-10]
IC50 (M. tuberculosis; [3]): 0.383 µM
IC90 (M. tuberculosis; [4]): 1.25 µM

COc1ccc(-c2nsc(SCC(=O)NC(C)C)n2)cc1 [Compound I-9]
IC50 (M. tuberculosis; [3]): 0.152 µM
IC90 (M. tuberculosis; [4]): 1.25 µM

COc1ccc(-c2nsc(SCC(=O)N3CCCCC3)n2)cc1 [Compound I-11]
IC50 (M. tuberculosis; [3]): 0.531 µM
IC90 (M. tuberculosis; [4]): 1.25 µM

CCCCCNC(=O)CSc1nc(-c2ccc(OC)cc2)ns1 [Compound I-2]
IC50 (M. tuberculosis; [3]): 0.098 µM
IC90 (M. tuberculosis; [4]): 0.31 µM

CCCCNC(=O)CSc1nc(-c2ccc(OC)cc2)ns1 [Compound I-14]
IC50 (M. tuberculosis; [3]): 0.496 µM
IC90 (M. tuberculosis; [4]): 1.25 µM

COc1ccc(-c2nsc(SCC(=O)NC3CCCCC3)n2)cc1 [Compound I-22]
IC50 (M. tuberculosis; [3]): 0.663 µM
IC90 (M. tuberculosis; [4]): 2.5 µM
